Experimental data from patent publication US20230096380A1, “COMPOUNDS, COMPOSITIONS, METHODS FOR TREATING DISEASES AND NERVE DAMAGE, AND METHODS FOR PREPARING COMPOUNDS” (CHILDREN'S HOSPITAL MEDICAL CENTER, priority 2020, published 2023).
“Also recorded” adds a separate entry of the source.

Legend:
p300 = target: T1, p300 (Rattus norvegicus, UniProt A0ABK0LGW0); assay: p300 activity inhibition (FIG. 2)
T1 construct: Isolated rat OPCs were grown in Sato growth medium; endogenous in cells; host or cells: primary rat oligodendrocyte progenitor cells (OPCs) from newborn rat brain

[1] = test system: Primary oligodendrocyte progenitor cells (OPCs); assay: Rat primary OPC differentiation, immunostaining for MBP, OLIG2 and/or cleaved Caspase 3 (FIGS. 1-6); type: cell-based
Source text: FIGS. 1-6. Primary oligodendrocyte progenitor cells (OPCs) were obtained from newborn rat brains after preparation of mixed glial cultures. This method generally follows that found in ZHAO et al. (2018) “Dual Requirement of CHD8 for Chromatin Landscape Establishment and Histone Methyltransferase Recruitment to Promote CNS Myelination and Repair” Dev Cell, Vol. 45, pp. 753-768. Briefly, mixed glial cells were initially cultured in DMEM-F12 medium supplied with 15% FBS, then switched to B104 conditioned medium for 2 days before isolating OPCs by mechanical detachment in an orbital shaker. Isolated rat OPCs were grown in Sato growth medium supplemented with mitogens 10 ng/ml PDGF-AA and 10 ng/ml bFGF. OPCs were then treated with indicated compounds and immunostained with oligodendrocyte myelination markers MBP and OLIG2, and/or a cell death marker cleaved Caspase 3. T3 ((2S)-2-amino-3-[4-(4-hydroxy-3-iodophenoxy)-3,5-diiodophenyl]propanoic acid; CAS 6893-02-3) was used as a positive control; the T3 concentration used was 15 nm.

[2] = test system: experimental autoimmune encephalomyelitis (EAE) demyelinating mouse model; assay: EAE demyelinating mouse model induced by myelin peptide MOG35-55 (FIG. 7); type: in vivo; conditions: EAE mice
Source text: FIG. 7. This method generally follows that found in WANG et al. (2017) “miR-219 Cooperates with miR-338 in Myelination and Promotes Myelin Repair in the CNS” Dev Cell, Vol. 40, pp. 566-582.

EAE mice = assay: Visual evoked potential (VEP) analyses on EAE mice (FIG. 17); type: in vivo; conditions: EAE mice at the peak of disease, versus Vehicle
Experimental: FIG. 17. Visual evoked potential (VEP) analyses were carried out on EAE mice treated with Vehicle and compound I-1 at the peak of disease. This method generally follows that found in YOU et al. (2011) “Latency delay of visual evoked potential is a real measurement of demyelination in a rat model of optic neuritis” Invest Ophthalmol Vis Sci, Vol. 52, pp. 6911-6918.

[3] = test system: Rat oligodendrocyte progenitor cells (OPCs); assay: Rat OPC differentiation, MBP and Olig2 immunostaining after 48 h treatment (FIG. 18); type: cell-based; conditions: for OPC differentiation (MBP, Olig2 immunostaining): at the indicated concentration
Experimental: FIG. 18. Methods: This method generally follows that found in WANG et al. (2017) “miR-219 Cooperates with miR-338 in Myelination and Promotes Myelin Repair in the CNS” Dev Cell, Vol. 40, pp. 566-582. Rat oligodendrocyte progenitor cells (OPCs) were seeded on coverslip and treated with compounds, I-1, I-16, I-15, I-13, I-8, and I-17 at the indicated concentration. Cells were immunostained with a mature oligodendrocyte marker MBP and an oligodendrocyte lineage marker Olig2 after 48 h treatment.

T1 sequence (A0ABK0LGW0 1-2423): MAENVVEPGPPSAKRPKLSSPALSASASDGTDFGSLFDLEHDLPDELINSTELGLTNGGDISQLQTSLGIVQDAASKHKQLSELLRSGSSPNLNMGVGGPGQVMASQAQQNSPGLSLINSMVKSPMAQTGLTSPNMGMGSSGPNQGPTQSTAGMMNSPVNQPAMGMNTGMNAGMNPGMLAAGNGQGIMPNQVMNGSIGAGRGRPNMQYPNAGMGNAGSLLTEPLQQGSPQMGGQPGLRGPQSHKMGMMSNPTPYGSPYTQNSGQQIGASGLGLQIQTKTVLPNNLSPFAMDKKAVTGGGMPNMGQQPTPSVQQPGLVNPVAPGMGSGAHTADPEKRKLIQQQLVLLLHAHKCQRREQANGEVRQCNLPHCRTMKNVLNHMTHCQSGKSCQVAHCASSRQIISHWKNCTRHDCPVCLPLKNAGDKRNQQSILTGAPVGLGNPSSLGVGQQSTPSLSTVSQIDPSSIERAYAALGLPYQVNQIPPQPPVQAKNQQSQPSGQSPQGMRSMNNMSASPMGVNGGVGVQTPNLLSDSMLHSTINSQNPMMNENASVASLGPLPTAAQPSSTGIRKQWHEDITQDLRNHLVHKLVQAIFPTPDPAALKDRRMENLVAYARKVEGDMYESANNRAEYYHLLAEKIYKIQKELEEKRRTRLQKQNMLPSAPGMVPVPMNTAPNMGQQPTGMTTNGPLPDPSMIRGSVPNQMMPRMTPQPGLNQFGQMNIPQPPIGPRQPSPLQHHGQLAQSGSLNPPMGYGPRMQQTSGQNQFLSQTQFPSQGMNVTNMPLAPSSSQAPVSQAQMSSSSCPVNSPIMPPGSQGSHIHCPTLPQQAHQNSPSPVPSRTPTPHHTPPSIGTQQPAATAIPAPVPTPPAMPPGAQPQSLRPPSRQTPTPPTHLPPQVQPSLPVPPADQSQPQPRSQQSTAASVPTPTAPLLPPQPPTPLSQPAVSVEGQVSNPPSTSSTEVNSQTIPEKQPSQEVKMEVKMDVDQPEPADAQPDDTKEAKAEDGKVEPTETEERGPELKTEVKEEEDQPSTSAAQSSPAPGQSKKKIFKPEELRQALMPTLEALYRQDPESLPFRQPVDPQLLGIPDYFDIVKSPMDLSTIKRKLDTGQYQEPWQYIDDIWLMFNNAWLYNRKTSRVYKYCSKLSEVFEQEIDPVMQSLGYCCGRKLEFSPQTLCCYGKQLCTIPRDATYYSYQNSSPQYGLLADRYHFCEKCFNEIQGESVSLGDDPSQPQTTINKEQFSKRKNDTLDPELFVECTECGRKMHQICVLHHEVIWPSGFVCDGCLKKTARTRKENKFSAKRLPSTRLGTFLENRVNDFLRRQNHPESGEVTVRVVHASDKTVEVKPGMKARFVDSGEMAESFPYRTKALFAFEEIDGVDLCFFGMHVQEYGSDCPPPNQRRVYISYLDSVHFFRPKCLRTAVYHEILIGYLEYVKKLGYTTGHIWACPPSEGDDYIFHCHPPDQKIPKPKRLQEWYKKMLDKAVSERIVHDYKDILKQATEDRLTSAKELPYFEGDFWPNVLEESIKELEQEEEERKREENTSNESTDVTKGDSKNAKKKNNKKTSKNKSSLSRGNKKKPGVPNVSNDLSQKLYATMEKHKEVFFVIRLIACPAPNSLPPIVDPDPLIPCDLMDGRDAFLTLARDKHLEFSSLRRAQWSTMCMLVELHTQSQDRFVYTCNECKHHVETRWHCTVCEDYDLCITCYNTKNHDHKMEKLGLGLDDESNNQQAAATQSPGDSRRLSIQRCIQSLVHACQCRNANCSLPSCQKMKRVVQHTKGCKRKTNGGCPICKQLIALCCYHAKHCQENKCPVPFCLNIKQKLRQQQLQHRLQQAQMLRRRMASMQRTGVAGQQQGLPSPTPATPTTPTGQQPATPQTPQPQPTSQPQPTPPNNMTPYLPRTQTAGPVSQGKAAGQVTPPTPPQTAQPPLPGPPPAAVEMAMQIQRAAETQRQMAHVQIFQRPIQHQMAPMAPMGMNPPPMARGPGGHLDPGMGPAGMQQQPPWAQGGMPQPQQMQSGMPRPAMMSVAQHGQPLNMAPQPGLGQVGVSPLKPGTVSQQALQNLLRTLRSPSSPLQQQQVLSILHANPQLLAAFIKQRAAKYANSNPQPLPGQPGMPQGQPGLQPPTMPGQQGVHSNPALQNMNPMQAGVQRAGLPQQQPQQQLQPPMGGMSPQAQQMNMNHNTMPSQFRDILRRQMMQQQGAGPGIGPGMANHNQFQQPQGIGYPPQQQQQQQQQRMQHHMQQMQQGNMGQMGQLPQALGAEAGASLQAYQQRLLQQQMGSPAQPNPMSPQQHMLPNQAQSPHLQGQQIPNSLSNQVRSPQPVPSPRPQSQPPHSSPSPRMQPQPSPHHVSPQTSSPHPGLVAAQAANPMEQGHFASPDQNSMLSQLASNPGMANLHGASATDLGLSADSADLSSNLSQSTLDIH

CNC(=O)Nc1ccc2c(c1)CC[C@@]21OC(=O)N(CC(=O)N(Cc2ccc(F)cc2)[C@@H](C)C(F)(F)F)C1=O [Compound A485]
p300 activity (p300): inhibits p300 activity

Nc1ccccc1NC(=O)c1cnc(NCc2ccccc2)cn1 [Compound I-1]
myelin MBP+ cell formation 3 days after treatment ([1]; 3 days after treatment, FIG. 6): enhances myelin MBP+ cell formation
myelin MBP+ cell formation ([1]; FIG. 5): enhances myelin MBP+ cell formation
oligodendrocyte differentiation and myelination in vitro ([1]; rat OPCs, MBP/OLIG2 immunostaining, FIGS. 1-6): promoted oligodendrocyte differentiation and myelination in vitro
OPC differentiation ([1]; rat primary OPCs, FIGS. 1, 3, 4): promotes oligodendrocyte progenitor cell (OPC) differentiation
myelin formation in presence of A485 ([1]; with p300 inhibitor A485, FIG. 2): appears to overcome A485 inhibition to enhance myelin formation
functional regeneration [2]: promotes functional regeneration
EAE disease severity / motor function (clinical scores) ([2]; MOG35-55 induced): improved motor function reflected in clinical scores; also recorded: reduced EAE disease severity
VEP N1 signals (EAE mice): showed greater and faster conducting VEP N1 signals
OPC differentiation (MBP, Olig2 immunostaining) [3]: promote OPC differentiation

Nc1ccccc1NC(=O)c1cnc(NC(c2ccccc2)c2ccccc2)cn1 [Compound I-8]
activity in promoting OPC into mature oligodendrocytes relative to compound I-1 [3]: comparable activity with compound I-1
OPC differentiation (MBP, Olig2 immunostaining) [3]: promote OPC differentiation

Nc1ccccc1NC(=O)c1cnc(NC(=O)C(c2ccccc2)c2ccccc2)cn1 [Compound I-13]
OPC differentiation (MBP, Olig2 immunostaining) [3]: promote OPC differentiation

Nc1ccccc1NC(=O)c1cnc(NC2=N[C@H](c3ccccc3)[C@H](c3ccccc3)O2)cn1 [Compound I-15]
OPC differentiation (MBP, Olig2 immunostaining) [3]: promote OPC differentiation

CC(C(=O)Nc1cnc(C(=O)Nc2ccccc2N)cn1)c1ccccc1 (centres unmarked) [Compound I-16]
OPC differentiation (MBP, Olig2 immunostaining) [3]: promote OPC differentiation

Nc1ccccc1NC(=O)c1cnc(NC(=O)C(N)c2ccccc2)cn1 (centres unmarked) [Compound I-17]
activity in promoting OPC into mature oligodendrocytes relative to compound I-1 [3]: comparable activity with compound I-1
OPC differentiation (MBP, Olig2 immunostaining) [3]: promote OPC differentiation
